Assays:
Test in all cases: Test B preemergence/postemergence greenhouse plant response rating 0 to 10
corn = type: in vivo, Zea mays; conditions: for Plant response rating, Corn: 0 to 10 scale
Summary of the method: (§1)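 Test chemicals were sprayed onto freshly planted seed and, concurrently, onto young plants between the one and four leaf stage. After a twelve- to sixteen-day greenhouse period, each species was visually compared with untreated controls.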

wild oat = type: in vivo, Avena fatua; conditions: 0 to 10 scale
Summary of the method: as §1

cheatgrass = type: in vivo, Bromus secalinus; conditions: for Plant response rating, Cheatgrass: 0 to 10 scale
Summary of the method: as §1

wild buckwheat = type: in vivo, Polygonum convolvulus; conditions: 0 to 10 scale
Summary of the method: as §1

chickweed = type: in vivo, Stellaria media; conditions: for Plant response rating, Chickweed: 0 to 10 scale
Summary of the method: as §1

giant foxtail = type: in vivo, Setaria faberii; conditions: 0 to 10 scale
Summary of the method: as §1

sorghum = type: in vivo, Sorghum bicolor; conditions: 0 to 10 scale
Summary of the method: as §1

| SMILES | Plant response rating (0 to 10 scale), Corn (corn; POSTEMERGENCE, Rate 50 g/ha) | Plant response rating, Corn (corn; POSTEMERGENCE, Rate 200 g/ha) | Plant response rating, Corn (corn; PREEMERGENCE, Rate 50 g/ha) | Plant response rating, Corn (corn; Rate 200 g/ha, PREEMERGENCE) | Plant response rating, Wild oat (wild oat; POSTEMERGENCE, Rate 50 g/ha) | Plant response rating, Wild oat (wild oat; POSTEMERGENCE, Rate 200 g/ha) | Plant response rating, Wild oat (wild oat; Rate 200 g/ha, PREEMERGENCE) | Plant response rating (0 to 10 scale), Cheatgrass (cheatgrass; POSTEMERGENCE, Rate 50 g/ha) | Plant response rating, Cheatgrass (cheatgrass; POSTEMERGENCE, Rate 200 g/ha) | Plant response rating, Cheatgrass (cheatgrass; PREEMERGENCE, Rate 50 g/ha) | Plant response rating, Cheatgrass (cheatgrass; Rate 200 g/ha, PREEMERGENCE) | Plant response rating, Wild buckwheat (wild buckwheat; POSTEMERGENCE, Rate 50 g/ha) | Plant response rating, Wild buckwheat (wild buckwheat; POSTEMERGENCE, Rate 200 g/ha) | Plant response rating, Wild buckwheat (wild buckwheat; PREEMERGENCE, Rate 50 g/ha) | Plant response rating, Wild buckwheat (wild buckwheat; Rate 200 g/ha, PREEMERGENCE) | Plant response rating, Chickweed (chickweed; PREEMERGENCE, Rate 50 g/ha) | Plant response rating, Chickweed (chickweed; Rate 200 g/ha, PREEMERGENCE) | Plant response rating, Giant foxtail (giant foxtail; POSTEMERGENCE, Rate 50 g/ha) | Plant response rating, Giant foxtail (giant foxtail; POSTEMERGENCE, Rate 200 g/ha) | Plant response rating, Giant foxtail (giant foxtail; PREEMERGENCE, Rate 50 g/ha) | also measured |
| --- | --- | --- | --- | --- | --- | --- | --- | --- | --- | --- | --- | --- | --- | --- | --- | --- | --- | --- | --- | --- | --- |
| Fc1cc(Cl)c(OC2CCCC2)cc1-c1nn2c(c1Cl)CCCC2 [Compound 24] | 5 | 5 | 0 | 1 | 3 | 4 | 2 | 3 | 5 | 0 | 4 | 10 | 10 | 3 | 5 | 0 | 3 | 4 | 5 | 3 | Plant response rating (0 to 10 scale), Chickweed (chickweed; POSTEMERGENCE, Rate 50 g/ha): 8; Plant response rating, Chickweed (chickweed; POSTEMERGENCE, Rate 200 g/ha): 9; Plant response rating, Giant foxtail (giant foxtail; Rate 200 g/ha, PREEMERGENCE): 8; Plant response rating, Sorghum (sorghum; POSTEMERGENCE, Rate 50 g/ha): 5; Plant response rating, Sorghum (sorghum; POSTEMERGENCE, Rate 200 g/ha): 6; Plant response rating, Sorghum (sorghum; PREEMERGENCE, Rate 50 g/ha): 0; Plant response rating, Sorghum (sorghum; Rate 200 g/ha, PREEMERGENCE): 1 |
| CCS(=O)(=O)Oc1cc(-c2nn3c(c2Cl)CCCC3)c(F)cc1Cl [Compound 25] | 3 | 6 | 0 | 0 | 3 | 4 | 4 | 3 | 3 | 0 | 3 | 10 | 10 | 8 | 10 | 0 | 9 | 3 | 4 | 2 | Plant response rating, Giant foxtail (giant foxtail; Rate 200 g/ha, PREEMERGENCE): 7; Plant response rating, Sorghum (sorghum; POSTEMERGENCE, Rate 50 g/ha): 4; Plant response rating, Sorghum (sorghum; POSTEMERGENCE, Rate 200 g/ha): 5; Plant response rating, Sorghum (sorghum; PREEMERGENCE, Rate 50 g/ha): 0; Plant response rating, Sorghum (sorghum; Rate 200 g/ha, PREEMERGENCE): 2 |

Source: patent US6358885B1, “Substituted phenylheterocyclic herbicides” (Mississippi State University, priority 1992, dated 2002)
